Source: US20210047297A1, “4-(3-AMINO-6-FLUORO-1H-INDAZOL-5-YL)-1,2,6-TRIMETHYL-1,4-DIHYDROPYRIDINE-3,5-DIC ARBONITRILE COMPOUNDS FOR TREATING HYPERPROLIFERATIVE DISORDERS” (Bayer Pharma Aktiengesellschaft, priority 2018, published 2021)

Molecular target: T1, GST-AMPKα2/ß1/γ1 complex (full-length human AMPKα2) (Homo sapiens, UniProt P54619+P54646+Q9Y478)
T1 construct: purchased Carna Biosciences 02-114; host or cells: baculovirus expression system
Assay: AMPK high ATP assay (TR-FRET-based AMPK activity inhibition assay)
Assay type: biochemical
Settings: ATP concentration of 1 mM; median; read-out: AMPK high ATP assay IC50 [mol/l] (median)
Protocol: AMPK inhibitory activity of compounds of the present invention at an ATP concentration of 1 mM was quantified employing the TR-FRET-based AMPK activity inhibition assay as described in the following paragraphs.
Recombinant fusion protein of N-terminal Glutathion-S-Transferase (GST) and full-length human AMPKα2 [1-552(end) amino acids of accession number NP_006243.2] co-expressed with GST-PRKAB1 [1-270(end) amino acids of accession number NP_006244.2] and PRKAG1 [1-331(end) amino acids of accession number NP_002724.1] using a baculovirus expression system, purified as GST-AMPKα2/ß1/γ1 complex by using glutathione sepharose chromatography, activated with His-tagged CaMKK1 and subsequently purified by using glutathione sepharose chromatography, was purchased from Carna Biosciences (product number 02-114) and used as kinase. As substrate for the kinase reaction biotinylated peptide biotin-Ahx-HMRSAMSFAEPG (C-terminus in amide form) was used which can be purchased e.g. form the company Biosyntan (Berlin-Buch, Germany). For the assay 50 nl of a 100 fold concentrated solution of the test compound in DMSO was pipetted into either a black low volume 384 well microtiter plate or a black 1536 well microtiter plate (both Greiner Bio-One, Frickenhausen, Germany), 2 μl of a solution of GST-AMPKα2/ß1/γ1 in aqueous assay buffer [50 mM Hepes pH 7.5, 10 mM MgCl2, 5 mM β-glycerophosphate, 2.5 mM dithiothreitol (DTT), 0.5 mM EGTA, 0.01% (w/v) bovine γ-globulin (Sigma-Aldrich, #G5009), 0.01% (v/v) Triton X-100 (Sigma-Aldrich, #T9284)] were added and the mixture was incubated for 15 min at 22° C. to allow pre-binding of the test compounds to the enzyme before the start of the kinase reaction. Then the kinase reaction was started by the addition of 3 μl of a solution of adenosine-tri-phosphate (ATP, 1.67 mM=>final conc. in the 5 μl assay volume is 1 mM), adenosine-mono-phosphate (AMP, 3.33 μM=>final conc. in the 5 μl assay volume is 2 μM), and substrate (0.83 μM=>final conc. in the 5 μl assay volume is 0.5 μM) in assay buffer and the resulting mixture was incubated for a reaction time of 30 min at 22° C. The concentration of GST-AMPK α2/ß1/γ1 was adjusted depending of the activity of the enzyme lot and was chosen appropriate to have the assay in the linear range, a typical concentration was 0.08 nM. The reaction was stopped by the addition of 3 μl of a solution of TR-FRET detection reagents (0.2 μM streptavidine-XL665 [Cisbio Bioassays, Codolet, France] and 3.33 nM anti-phosho-Serine antibody [Merck Millipore, “STK antibody”, cat. #35-002] and 3.33 nM anti mouse IgG-Tb cryptate, a Terbium-cryptate labelled anti-mouse IgG antibody [Cisbio Bioassays, Codolet, France] in an aqueous EDTA-solution (166.7 mM EDTA, 0.06 (w/v) bovine serum albumin in 50 mM HEPES pH 7.5).
The resulting mixture was incubated 1 h at 22° C. to allow the formation of complex between the phosphorylated biotinylated peptide and the detection reagents. Subsequently the amount of phosphorylated substrate was evaluated by measurement of the resonance energy transfer from the Tb-cryptate to the streptavidine-XL665. Therefore, the fluorescence emissions at 620 nm and 665 nm after excitation at 350 nm was measured in a TR-FRET reader, e.g. a Pherastar FS (BMG Labtechnologies, Offenburg, Germany) or a Viewlux (Perkin-Elmer). The ratio of the emissions at 665 nm and at […] was taken as the measure for the amount of phosphorylated substrate. The data were normalised (enzyme reaction without inhibitor=0 inhibition, all other assay components but no enzyme=100% inhibition).

T1 sequence (P54646 whole entry): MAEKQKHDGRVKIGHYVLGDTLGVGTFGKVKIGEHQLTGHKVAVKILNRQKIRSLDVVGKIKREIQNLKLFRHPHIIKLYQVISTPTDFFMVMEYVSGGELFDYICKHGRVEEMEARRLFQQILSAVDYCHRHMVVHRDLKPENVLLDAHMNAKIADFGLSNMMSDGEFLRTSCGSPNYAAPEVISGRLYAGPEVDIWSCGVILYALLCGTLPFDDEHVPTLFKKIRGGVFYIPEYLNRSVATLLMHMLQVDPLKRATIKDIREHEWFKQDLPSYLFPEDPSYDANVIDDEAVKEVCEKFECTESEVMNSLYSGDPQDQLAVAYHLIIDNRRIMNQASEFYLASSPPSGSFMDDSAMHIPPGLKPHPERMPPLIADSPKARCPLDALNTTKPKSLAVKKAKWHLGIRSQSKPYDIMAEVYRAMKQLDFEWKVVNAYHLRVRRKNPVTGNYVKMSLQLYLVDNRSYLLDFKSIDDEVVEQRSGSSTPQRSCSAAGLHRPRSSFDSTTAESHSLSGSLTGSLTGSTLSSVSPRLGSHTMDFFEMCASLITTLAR
T1 sequence (Q9Y478 whole entry partner): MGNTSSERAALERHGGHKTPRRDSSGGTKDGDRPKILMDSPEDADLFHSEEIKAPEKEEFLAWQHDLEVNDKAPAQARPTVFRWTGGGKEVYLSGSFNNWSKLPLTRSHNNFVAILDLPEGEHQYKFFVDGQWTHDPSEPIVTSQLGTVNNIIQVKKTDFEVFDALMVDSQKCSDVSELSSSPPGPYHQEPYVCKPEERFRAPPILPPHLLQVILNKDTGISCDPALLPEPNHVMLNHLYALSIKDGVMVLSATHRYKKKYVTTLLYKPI
T1 sequence (P54619 whole entry partner): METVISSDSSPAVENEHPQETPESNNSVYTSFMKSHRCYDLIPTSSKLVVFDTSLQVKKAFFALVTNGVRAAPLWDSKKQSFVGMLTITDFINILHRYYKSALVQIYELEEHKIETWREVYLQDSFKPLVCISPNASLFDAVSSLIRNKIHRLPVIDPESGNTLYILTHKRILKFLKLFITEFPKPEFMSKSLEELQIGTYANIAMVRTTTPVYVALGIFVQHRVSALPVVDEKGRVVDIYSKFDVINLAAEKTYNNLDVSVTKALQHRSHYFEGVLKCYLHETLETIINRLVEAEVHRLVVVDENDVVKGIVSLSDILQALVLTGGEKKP

| Compound | IC50 [nM] |
| --- | --- |
| CC1=C(C#N)C(c2cc3c(NC(=O)c4cnn(CC(C)(C)O)c4C(F)(F)F)n[nH]c3c(C)c2F)C(C#N)=C(C)N1C [Example 18, N-[5-(3,5-dicyano-1,2,6-trimethyl-1,4-dihydropyridin-4-yl)-6-fluoro-7-methyl-1H-indazol-3-yl]-1-(2-hydroxy-2-methylpropyl)-5-(trifluoromethyl)-1H-pyrazole-4-carboxamide] | 45.4 |
| CC1=C(C#N)C(c2cc3c(NC(=O)c4ccc(OCCN5CCCC5)cc4Cl)n[nH]c3c(C)c2F)C(C#N)=C(C)N1C [Example 20, 2-chloro-N-[5-(3,5-dicyano-1,2,6-trimethyl-1,4-dihydropyridin-4-yl)-6-fluoro-7-methyl-1H-indazol-3-yl]-4-[2-(pyrrolidin-1-yl)ethoxy]benzamide] | 0.66 |
| CC1=C(C#N)C(c2cc3c(NC(=O)Cc4ccc(C)nc4)n[nH]c3c(C)c2F)C(C#N)=C(C)N1C [Example 14, N-[5-(3,5-dicyano-1,2,6-trimethyl-1,4-dihydropyridin-4-yl)-6-fluoro-7-methyl-1H-indazol-3-yl]-2-(6-methylpyridin-3-yl)acetamide] | 21.5 |
| CC1=C(C#N)C(c2cc3c(NC(=O)c4cn(CCN5CCCC5)nc4C(F)(F)F)n[nH]c3c(C)c2F)C(C#N)=C(C)N1C [Example 16, N-[5-(3,5-dicyano-1,2,6-trimethyl-1,4-dihydropyridin-4-yl)-6-fluoro-7-methyl-1H-indazol-3-yl]-1-[2-(pyrrolidin-1-yl)ethyl]-3-(trifluoromethyl)-1H-pyrazole-4-carboxamide] | 5.71 |
| CC1=C(C#N)C(c2cc3c(NC(=O)c4cn(C)nc4C(F)(F)F)n[nH]c3c(I)c2F)C(C#N)=C(C)N1C [Example 3, N-[5-(3,5-dicyano-1,2,6-trimethyl-1,4-dihydropyridin-4-yl)-6-fluoro-7-iodo-1H-indazol-3-yl]-1-methyl-3-(trifluoromethyl)-1H-pyrazole-4-carboxamide] | 54.3 |
| CCc1c(F)c(C2C(C#N)=C(C)N(C)C(C)=C2C#N)cc2c(NC(=O)c3c(F)cccc3F)n[nH]c12 [Example 26, N-[5-(3,5-dicyano-1,2,6-trimethyl-1,4-dihydropyridin-4-yl)-7-ethyl-6-fluoro-1H-indazol-3-yl]-2,6-difluorobenzamide] | 38.1 |
| COC(=O)C12C3C4C1C1C2C3C41C(=O)Nc1n[nH]c2c(C)c(F)c(C3C(C#N)=C(C)N(C)C(C)=C3C#N)cc12 (centres unmarked) [Example 22, methyl 4-{[5-(3,5-dicyano-1,2,6-trimethyl-1,4-dihydropyridin-4-yl)-6-fluoro-7-methyl-1H-indazol-3-yl]carbamoyl}cubane-1-carboxylate] | 65.6 |
| CC1=C(C#N)C(c2cc3c(NC(=O)c4cn(CC(C)(C)O)nc4C(F)(F)F)n[nH]c3c(C)c2F)C(C#N)=C(C)N1C [Example 17, N-[5-(3,5-dicyano-1,2,6-trimethyl-1,4-dihydropyridin-4-yl)-6-fluoro-7-methyl-1H-indazol-3-yl]-1-(2-hydroxy-2-methylpropyl)-3-(trifluoromethyl)-1H-pyrazole-4-carboxamide] | 7.95 |
| CC1=C(C#N)C(c2cc3c(NC(=O)c4ccccc4Cl)n[nH]c3c(I)c2F)C(C#N)=C(C)N1C [Example 2, 2-chloro-N-[5-(3,5-dicyano-1,2,6-trimethyl-1,4-dihydropyridin-4-yl)-6-fluoro-7-iodo-1H-indazol-3-yl]benzamide] | 13 |
| CCn1cc(C(=O)Nc2n[nH]c3c(C)c(F)c(C4C(C#N)=C(C)N(C)C(C)=C4C#N)cc23)c(C)n1 [Example 12, N-[5-(3,5-dicyano-1,2,6-trimethyl-1,4-dihydropyridin-4-yl)-6-fluoro-7-methyl-1H-indazol-3-yl]-1-ethyl-3-methyl-1H-pyrazole-4-carboxamide] | 15.7 |
| C=Cc1c(F)c(C2C(C#N)=C(C)N(C)C(C)=C2C#N)cc2c(NC(=O)c3cc(C)nn3CC)n[nH]c12 [Example 25, N-[5-(3,5-dicyano-1,2,6-trimethyl-1,4-dihydropyridin-4-yl)-7-ethenyl-6-fluoro-1H-indazol-3-yl]-1-ethyl-3-methyl-1H-pyrazole-5-carboxamide] | 152 |
| CCc1c(F)c(C2C(C#N)=C(C)N(C)C(C)=C2C#N)cc2c(NC(=O)c3cc(C)nn3CC)n[nH]c12 [Example 30, N-[5-(3,5-dicyano-1,2,6-trimethyl-1,4-dihydropyridin-4-yl)-7-ethyl-6-fluoro-1H-indazol-3-yl]-1-ethyl-3-methyl-1H-pyrazole-5-carboxamide] | 68.6 |
| CC1=C(C#N)C(c2ccc3[nH]nc(NC(=O)c4ccccc4)c3c2)C(C#N)=C(C)N1 [Reference Example 1, N-[5-(3,5-dicyano-2,6-dimethyl-1,4-dihydropyridin-4-yl)-1H-indazol-3-yl]benzamide, reference compound] | 279 |
| CCn1nc(C)cc1C(=O)Nc1n[nH]c2c(C)c(F)c(C3C(C#N)=C(C)N(C)C(C)=C3C#N)cc12 [Example 5, N-[5-(3,5-dicyano-1,2,6-trimethyl-1,4-dihydropyridin-4-yl)-6-fluoro-7-methyl-1H-indazol-3-yl]-1-ethyl-3-methyl-1H-pyrazole-5-carboxamide] | 3.74 |
| CC1=C(C#N)C(c2cc3c(NC(=O)c4ccc(OCCN5CCCC5)cc4Cl)n[nH]c3c(I)c2F)C(C#N)=C(C)N1C [Example 4, 2-chloro-N-[5-(3,5-dicyano-1,2,6-trimethyl-1,4-dihydropyridin-4-yl)-6-fluoro-7-iodo-1H-indazol-3-yl]-4-[2-(pyrrolidin-1-yl)ethoxy]benzamide] | 2.7 |
| CCn1nc(C)cc1C(=O)Nc1n[nH]c2c(C(F)(F)F)c(F)c(C3C(C#N)=C(C)N(C)C(C)=C3C#N)cc12 [Example 33, N-[5-(3,5-dicyano-1,2,6-trimethyl-1,4-dihydropyridin-4-yl)-6-fluoro-7-(trifluoromethyl)-1H-indazol-3-yl]-1-ethyl-3-methyl-1H-pyrazole-5-carboxamide] | 25 |
| CC1=C(C#N)C(c2cc3c(NC(=O)C45C6C7C4C4C5C6C74C(=O)N4CCC4)n[nH]c3c(C)c2F)C(C#N)=C(C)N1C (centres unmarked) [Example 23, 4-(azetidine-1-carbonyl)-N-[5-(3,5-dicyano-1,2,6-trimethyl-1,4-dihydropyridin-4-yl)-6-fluoro-7-methyl-1H-indazol-3-yl]cubane-1-carboxamide] | 105 |
| CC1=C(C#N)C(c2cc3c(NC(=O)C45C6C7C4C4C5C6C74C(=O)N4CCN(C)CC4)n[nH]c3c(C)c2F)C(C#N)=C(C)N1C (centres unmarked) [Example 24, N-[5-(3,5-dicyano-1,2,6-trimethyl-1,4-dihydropyridin-4-yl)-6-fluoro-7-methyl-1H-indazol-3-yl]-4-(4-methylpiperazine-1-carbonyl)cubane-1-carboxamide] | 59.7 |
| CCc1c(F)c(C2C(C#N)=C(C)N(C)C(C)=C2C#N)cc2c(NC(=O)c3c(Cl)cnn3C)n[nH]c12 [Example 29, 4-chloro-N-[5-(3,5-dicyano-1,2,6-trimethyl-1,4-dihydropyridin-4-yl)-7-ethyl-6-fluoro-1H-indazol-3-yl]-1-methyl-1H-pyrazole-5-carboxamide] | 122 |
| CCc1ccccc1C(=O)Nc1n[nH]c2c(CC)c(F)c(C3C(C#N)=C(C)N(C)C(C)=C3C#N)cc12 [Example 27, N-[5-(3,5-dicyano-1,2,6-trimethyl-1,4-dihydropyridin-4-yl)-7-ethyl-6-fluoro-1H-indazol-3-yl]-2-ethylbenzamide] | 59.5 |
